In patent US20260159481A1, “INDOLE DERIVATIVE WITH SUBSTITUENT AND PHARMACEUTICAL USE” (MITOIMMUNE THERAPEUTICS INC., priority 2023, published 2026):

Test system: cardiac cells (H9C2)
Assay: Protective effect against t-BHP-induced cell death in cardiac cells (LDH release)
Assay type: cell-based
Details: Rattus norvegicus, t-BHP 400 PM, 2 hours, read-out: EC50, protective effect against cell death due to t-BHP induction
Description: To confirm a protective effect on cardiac cells, H9C2 cells were seeded at 1.5×10^4 cells/well in a 96-well plate and cultured for 24 hours. The example compounds were diluted to have the final concentration of 0.001, 0.01, 0.03, 0.1, 0.3, 1, 3, 10, and 30 PM, respectively, and then added to different wells, and the resulting cells were cultured for 15 to 20 minutes. Tert-butyl hydroperoxide (t-BHP) was treated to have the final concentration of 400 PM, and the resulting cells were cultured for 2 hours. To confirm the cell death protection effect of each compound, the degree of extracellular secretion of lactate dehydrogenase (LDH) was measured using a cytotoxicity LDH assay kit [Dojindo; CK12]. Briefly, after 2 hours of t-BHP treatment on the cells, 70 μL of the supernatant was taken from the 96-well plate where the cells were cultured and transferred to a new 96-well plate. The assay buffer included in the kit was added at 70 μL/well (equal to that of the sample) and the plate was covered with foil to block light and allowed to react for 15 minutes at room temperature. While observing a color change of each sample, 35 μL/well of a stop solution was added, an absorbance at 490 nm was measured using an iD3 spectrophotometer, and an EC50 value was calculated.

Row | SMILES | EC50 [µM]
1 | OCCNCCOCc1cc(NC2CCOCC2)c2[nH]c(-c3ccccc3)cc2c1 [Example 48, 2-((2-((2-phenyl-7-((tetrahydro-2H-pyran-4-yl)amino)-1H-indol-5-yl)methoxy)ethyl)amino)ethan-1-ol] | 0.3 to 1
2 | COCCNC(=O)c1cc(NC2CCOCC2)c2[nH]c(-c3ccccc3)cc2c1 [Example 49, N-(2-methoxyethyl)-2-phenyl-7-((tetrahydro-2H-pyran-4-yl)amino)-1H-indol-5-carboxamide] | ≤ 0.3
3 | COCCNCc1cc(NC2CCOCC2)c2[nH]c(-c3ccccc3)cc2c1 [Example 50, 5-(((2-methoxyethyl)amino)methyl)-2-phenyl-N-(tetrahydro-2H-pyran-4-yl)-1H-indol-7-amine] | ≤ 0.3
4 | COCCN(C)C(=O)c1cc(NC2CCOCC2)c2[nH]c(-c3ccccc3)cc2c1 [Example 51, N-(2-methoxyethyl)-N-methyl-2-phenyl-7-((tetrahydro-2H-pyran-4-yl)amino)-1H-indole-5-carboxamide] | ≤ 0.3
5 | COCCOCCN(C)C(=O)c1cc(NC2CCOCC2)c2[nH]c(-c3ccccc3)cc2c1 [Example 52, N-(2-(2-methoxyethoxy)ethyl)-N-methyl-2-phenyl-7-((tetrahydro-2H-pyran-4-yl)amino)-1H-indole-5-carboxamide] | > 1
6 | CN(CCO)CCOCc1cc(NC2CCOCC2)c2[nH]c(-c3ccccc3)cc2c1 [Example 53, 2-(methyl(2-((2-phenyl-7-((tetrahydro-2H-pyran-4-yl)amino)-1H-indol-5-yl)methoxy)ethyl)amino)ethan-1-ol] | ≤ 0.3
7 | CN(CCOCCO)C(=O)c1cc(NC2CCOCC2)c2[nH]c(-c3ccccc3)cc2c1 [Example 54, N-(2-(2-hydroxyethoxy)ethyl)-N-methyl-2-phenyl-7-((tetrahydro-2H-pyran-4-yl)amino)-1H-indole-5-carboxamide] | 0.3 to 1
8 | COCCN(C)Cc1cc(NC2CCOCC2)c2[nH]c(-c3ccccc3)cc2c1 [Example 55, 5-(((2-methoxyethyl)(methyl)amino)methyl)-2-phenyl-N-(tetrahydro-2H-pyran-4-yl)-1H-indol-7-amine] | ≤ 0.3
9 | COCCOCCNC(=O)c1cc(NC2CCOCC2)c2[nH]c(-c3ccccc3)cc2c1 [Example 56, N-(2-(2-methoxyethoxy)ethyl)-2-phenyl-7-((tetrahydro-2H-pyran-4-yl)amino)-1H-indole-5-carboxamide] | 0.3 to 1
10 | COCCOCCNCc1cc(NC2CCOCC2)c2[nH]c(-c3ccccc3)cc2c1 [Example 57, 5-(((2-(2-methoxyethoxy)ethyl)amino)methyl)-2-phenyl-N-(tetrahydro-2H-pyran-4-yl)-1H-indol-7-amine] | ≤ 0.3
11 | COCCOCCN(C)Cc1cc(NC2CCOCC2)c2[nH]c(-c3ccccc3)cc2c1 [Example 58, 5-(((2-(2-methoxyethoxy)ethyl)(methyl)amino)methyl)-2-phenyl-N-(tetrahydro-2H-pyran-4-yl)-1H-indol-7-amine] | ≤ 0.3
12 | CS(=O)(=O)NCCOCc1cc(NC2CCOCC2)c2[nH]c(-c3ccccc3)cc2c1 [Example 59, N-(2-((2-phenyl-7-((tetrahydro-2H-pyran-4-yl)amino)-1H-indol-5-yl)methoxy)ethyl)methanesulfonamide] | ≤ 0.3
13 | COCCNCCOCc1cc(NC2CCOCC2)c2[nH]c(-c3ccccc3)cc2c1 [Example 60, 5-((2-((2-methoxyethyl)amino)ethoxy)methyl)-2-phenyl-N-(tetrahydro-2H-pyran-4-yl)-1H-indol-7-amine] | ≤ 0.3
14 | COCCN(C)CCOCc1cc(NC2CCOCC2)c2[nH]c(-c3ccccc3)cc2c1 [Example 61, 5-((2-((2-methoxyethyl)(methyl)amino)ethoxy)methyl)-2-phenyl-N-(tetrahydro-2H-pyran-4-yl)-1H-indol-7-amine] | ≤ 0.3
